Target: human FXa (Homo sapiens, UniProt P00742)
Assay: Human activated coagulation factor X (FXa) inhibiting effect
Assay type: biochemical
Conditions: concentration at which the FXa effect was inhibited by 50%; substrate S-2765, 37° C., absorbance at 405 nm
Experimental: (1) Human Activated Coagulation Factor X (FXa) Inhibiting Effect
Method: A cuvette was charged with 225 μl of 0.05 M tris buffer (pH 8.3) containing 0.145 M sodium chloride and 2 mM calcium chloride, 5 μl of a sample (test compound dissolved in dimethyl sulfoxide) and 10 μl of human FXa (0.3 unit/ml), which were reacted at 37° C. for 10 minutes and then combined with 10 μl of a substrate (3 mM, S-2765) and further reacted at 37° C. for 10 minutes. hen the reaction was terminated by adding 25 μl of 50% aqueous acetic acid, and the change in the absorbance at 405 nm was determined using a spectrophotometer to calculate the concentration at which the FXa effect was inhibited by 50% (IC50)

Chain of human FXa (P00742 235-488 limits assumed): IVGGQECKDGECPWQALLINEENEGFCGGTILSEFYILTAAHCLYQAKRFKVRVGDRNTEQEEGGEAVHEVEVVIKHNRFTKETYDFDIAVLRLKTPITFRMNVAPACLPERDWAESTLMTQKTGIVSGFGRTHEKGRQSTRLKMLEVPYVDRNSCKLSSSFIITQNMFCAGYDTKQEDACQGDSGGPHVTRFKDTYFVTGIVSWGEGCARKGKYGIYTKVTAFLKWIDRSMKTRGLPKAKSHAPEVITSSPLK
Chain of human FXa (P00742 41-179 partner limits assumed): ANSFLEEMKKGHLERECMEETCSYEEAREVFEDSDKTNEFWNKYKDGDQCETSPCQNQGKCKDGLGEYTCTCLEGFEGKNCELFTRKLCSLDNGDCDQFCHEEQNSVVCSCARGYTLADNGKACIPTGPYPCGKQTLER

**Q.** How did the IC50 turn out when `O=C1CN(S(=O)(=O)C2=Cc3ccc(Cl)cc3OC2)CCN1NC1CCN(c2ccncc2)CC1` [Example 6] was run?
**A.** Its IC50 is 5.8 nM.
